Where two headings read alike, the source gives them in different places.
What was measured:
adenosine deaminase = experiment: Adenosine deaminase assay (deamination of nucleosides); type: in vitro ADME
Description: In order to determine if these 6-substituted compounds are converted to G analogs by the enzyme adenosine deaminase, a series of enzyme kinetics experiments were undertaken.
To determine the propensity for deamination of the APN nucleosides by adenosine deaminase, nucleoside compounds were incubated with the commercially available purified enzyme, and the reaction was followed spectrophotometrically. Reaction conditions were 50 mM potassium phosphate, pH 7.4, with 50 μM APN nucleoside in 0.5 mL at 25° C. Reaction time was 7 minutes with 0.002 units of enzyme and 120 minutes with 0.2 units of enzyme. (The unit definition of adenosine deaminase is one unit will deaminate 1.0 μmol of adenosine to inosine per minute at pH 7.5 at 25° C.) Deoxyadenosine was the positive control which was 59% deaminated under the given conditions in 7 minutes with 0.002 units of enzyme. Deoxyguanosine was the negative control. Optical density was measured at 265 nm or 285 nm. The difference in optical density between the beginning and the end of the experiment was divided by the extinction coefficient then multiplied by the volume of the reaction to determine the number of mols of substrate transformed into product. Mols of product were divided by mols of substrate equivalent to a 100% complete reaction then multiplied by 100 to obtain percent deamination. The limit of detection was 0.001 optical density units.

PBM cells [1] = conditions: human, 4 h, 50 μM
HIV-1/LAI = experiment: Anti-HIV-1 assay in PBM cells; type: cell-based; conditions: Human immunodeficiency virus 1, PBMC
Description: Stock solutions (20-40 mM) of the compounds were prepared in sterile DMSO and then diluted to the desired concentration in growth medium. Cells were infected with the prototype HIV-1LAI at a multiplicity of infection of 0.01. Virus obtained from the cell supernatant was quantified on day 6 after infection by a reverse transcriptase assay using (rA)n·(dT)12-18 as template-primer. […] The antiviral EC50 and EC90 were obtained from the concentration-response curve using the median effective method described previously (see Chou T.-C. & Talalay P. Adv. Enzyme Regul. 1984, 22, 27-55; Belen'kii M. S. & Schinazi R. F. Antiviral Res. 1994, 25, 1-11).

HIV-2/pROD10 = experiment: HIV-2 drug susceptibility in PBM cells; type: cell-based; conditions: Human immunodeficiency virus 2, PBMC
HBV = experiment: Anti-HBV assay (AD-38 cell line); type: cell-based; conditions: Hepatitis B virus
Description: The anti-HBV activity of the compounds was determined by treating the AD-38 cell line carrying wild type HBV under the control of tetracycline (see Ladner S. K., Otto M. J., Barker C. S., Zaifert K., Wang G. H., Guo J. T., Seeger C. & King R. W. Antimicrob. Agents Chemother. 1997, 41, 1715-20). Removal of tetracycline from the medium [Tet (−)] results in the production of HBV. The levels of HBV in the culture supernatant fluids from cells treated with the compounds were compared with that of the untreated controls. Control cultures with tetracycline [Tet (+)] were also maintained to determine the basal levels of HBV expression.

PBM cells [2] = experiment: Cytotoxicity assay in PBM cells; type: cell-based, human; conditions: Homo sapiens, PBMC, Tables 2-4; read-out: PBM IC50
CEM cells = experiment: Cytotoxicity assay in CEM cells; type: cell-based, human; conditions: Homo sapiens, CCRF-CEM, Tables 2-4; read-out: CEM IC50
Vero cells = experiment: Cytotoxicity assay in Vero cells; type: cell-based
HSV-1 = HSV-1 drug susceptibility assay; type: cell-based
Description: Agents Chemother. […] K., Otto, M. J., Schinazi, R. F. “Antiviral activities and cellular toxicities of modified 2′,3′-dideoxy-2′,3′-didehydrocytidine analogs” Antimicrob. Agents Chemother. 2002, 46, 3854-60. • ^cHSV-1 drug susceptibility assay was done as previously described in: Schinazi, R. F., Peters, J., Williams, C. C., Chance, D., Nahmias, A. J. “Effect of combinations of acyclovir with vidarabine or its 5′-monophosphate on herpes simplex virus in cell culture and in mice.” Antimicrob. Agents Chemother. 1982, 22, 499-507. • ^dHCV Replicon Assay^1: Huh 7 Clone B cells containing HCV Replicon RNA were seeded in a 96-well plate at 5000 cells/well, and the compounds were tested at 10 μM in triplicate immediately after seeding. Following five days incubation (37° C., 5% CO2), total cellular RNA was isolated by using versaGene RNA purification kit from Gentra. Replicon RNA and an internal control (TaqMan rRNA control reagents, Applied Biosystems) were amplified in a single step multiplex Real Time RT-PCR Assay. The antiviral effectiveness of the compounds was calculated by subtracting the threshold RT-PCR cycle of the test compound from the threshold RT-PCR cycle of the no-drug control (ΔCtHCV). A ΔCt of 3.3 equals a 1-log reduction (equal to 90% less starting material) in Replicon RNA levels. The cytotoxicity of the compounds was also calculated by using the ΔCt rRNA values. 77 (2′-Me-C) was used as the control. To determine EC90 and IC50 values^2, ΔCt: values were first converted into fraction of starting material^3 and then were used to calculate the % inhibition.

[3] = PBM cells, read-out: HIV-1/LAI (PBM) EC50
[4] = PBM cells, read-out: HIV-1/LAI (PBM) EC90
[5] = 50 μM nucleoside, pH 7.4, 25° C., 0.002 units enzyme
[6] = 50 μM nucleoside, pH 7.4, 25° C., 0.2 units enzyme

| Compound | nucleotides detected (LC/MS) (PBM cells [1]) | species not detected (LC/MS) (PBM cells [1]) | EC50 (HIV-1/LAI; [3]) [µM] | EC90 (HIV-1/LAI; [4]) [µM] | EC50 (HIV-2/pROD10) [µM] | EC90 (HIV-2/pROD10) [µM] | EC50 (HBV) [µM] | EC90 (HBV) [µM] | also measured |
| --- | --- | --- | --- | --- | --- | --- | --- | --- | --- |
| COc1nc(N)nc2c1ncn2[C@H]1CC(N=[N+]=[N-])[C@@H](CO)O1 (some centres unmarked) [Compound 70] | detection of RFS-506-DP, RFS-457-DP, and RFS-457-TP | No RFS-506, RFS-506-MP, or RFS-506-TP were detected | – | – | – | – | – | – | Deamination in 7 min (0.002 units Adenosine Deaminase) (adenosine deaminase; 50 μM, pH 7.4): 0.55 ± 5.8%; Deamination in 120 min (0.2 units Adenosine Deaminase) (adenosine deaminase; 50 μM, pH 7.4): 130.22 ± 4.72% |
| C=CCNc1nc(N)nc2c1ncn2[C@H]1CC(N=[N+]=[N-])[C@@H](CO)O1 (stereo partly drawn) [Compound 62, 2-Amino-9-(3′-azido-2′,3′-dideoxy-β-D-erythro-pentofuranosyl)-6-allylamino-9H-purine] | detection of RFS-457-DP and RFS-457-TP | No RFS-427, RFS-427-MP, RFS-427-DP, or RFS-427-TP were detected | 0.5 | 4.3 | 0.71 | 7.4 | > 10 | > 10 | Deamination in 120 min (0.2 units Adenosine Deaminase) (adenosine deaminase; 50 μM, pH 7.4): 7.60% |
| CC(CO)Nc1nc(N)nc2c1ncn2[C@H]1CC(N=[N+]=[N-])[C@@H](CO)O1 (some centres unmarked) [Compound 67] | – | – | 59.9 | > 10 | 51.6 | > 100 | > 10 | > 10 | – |
| CN(C)c1nc(N)nc2c1ncn2[C@H]1CC(N=[N+]=[N-])[C@@H](CO)O1 (some centres unmarked) [Compound 69] | – | – | 0.21 | 1.05 | 2.5 | 5.9 | > 10 | > 10 | Conversion by / stability to adenosine deaminase (adenosine deaminase): stable to adenosine deaminase |
| Nc1nc(O)c2ncn([C@H]3C[C@H](O)[C@@H](CO)O3)c2n1 [2Õ-deoxy- guanosine, Deoxyguanosine, reference compound] | – | – | – | – | – | – | – | – | Deamination in 7 min (0.002 units Adenosine Deaminase) (adenosine deaminase; [5]): below level of detection; Deamination in 120 min (0.2 units Adenosine Deaminase) (adenosine deaminase; [6]): below level of detection |
| CC(C)(CO)Nc1nc(N)nc2c1ncn2[C@H]1CC(N=[N+]=[N-])[C@@H](CO)O1 (stereo partly drawn) [Compound 65, 2-Amino-9-(3′-azido-2′,3′-dideoxy-β-D-erythro-pentofuranosyl)-6-N-2-methyl-2-amino-propanol-9H-purine] | – | – | 52.5 | > 10 | > 100 | > 100 | > 10 | > 10 | – |
| C=CCN(C)c1nc(N)nc2c1ncn2[C@H]1CC(N=[N+]=[N-])[C@@H](CO)O1 (stereo partly drawn) [Compound 63, 2-Amino-9-(3′-azido-2′,3′-dideoxy-β-D-erythro-pentofuranosyl)-6-N-methylallylamino-9H-purine] | detection of RFS-457-TP | No RFS-464, RFS-464-MP, RFS-464-DP, or RFS-464-TP were detected | 0.4 | 1.5 | 2.4 | 6.1 | > 10 | > 10 | – |
| [N-]=[N+]=NC1C[C@H](n2cnc3c(NCCCCCO)nc(N)nc32)O[C@@H]1CO (stereo partly drawn) [Compound 64, 2-Amino-9-(3′-azido-2′,3′-dideoxy-β-D-erythro-pentofuranosyl)-6-aminopentanol-9H-purine] | – | – | – | – | > 100 | > 100 | > 10 | > 10 | EC50 (HIV-1/LAI; read-out: HIV-1/LAI (PBM) EC50, PBM cells): 86.5 µM; EC90 (HIV-1/LAI; read-out: HIV-1/LAI (PBM) EC90, PBM cells): > 10 µM |
| CCOC(=O)[C@H](C)NP(=O)(OC[C@H]1O[C@@H](n2cnc3c(Cl)nc(N)nc32)CC1N=[N+]=[N-])Oc1ccccc1 (some centres unmarked) [RS-784] | – | – | – | – | – | – | – | – | EC50 (HIV-1/LAI; Tables 2-4, n = 3 for the MP prodrugs, read-out: HIV EC50): 0.035 µM; EC90 (HIV-1/LAI; Tables 2-4, n = 3 for the MP prodrugs, read-out: HIV EC90): 0.1 µM; IC50 (PBM cells [2]): 11.6 µM; IC50 (CEM cells): 13.5 µM; IC50 (Vero cells; Chlorocebus sabaeus, Vero, read-out: Vero IC50): > 100 µM |
| Nc1nc2c(ncn2COCCO)c(=O)[nH]1 [ACV, reference compound] | – | – | – | – | – | – | – | – | EC50 (HSV-1): 0.16 µM; EC90 (HSV-1): 0.42 µM; IC50 (Vero cells; Table 5, read-out: Toxicity IC50 Vero): > 100 µM |
| COCCNc1nc(N)nc2c1ncn2[C@H]1CC(N=[N+]=[N-])[C@@H](CO)O1 (some centres unmarked) [Compound 74] | – | – | 2.1 | 16.2 | – | – | – | – | – |
| Nc1ncnc2c1ncn2[C@H]1C[C@H](O)[C@@H](CO)O1 [2Õ-deoxy- adenosine, Deoxyadenosine, reference compound] | – | – | – | – | – | – | – | – | Deamination in 7 min (0.002 units Adenosine Deaminase) (adenosine deaminase; [5]): 59.30%; Deamination in 7 min (0.002 units Adenosine Deaminase) (adenosine deaminase; 50 μM nucleoside, pH 7.4, 25° C., 0.002 units enzyme, listed as Deoxyadenosine): 59%; Deamination in 120 min (0.2 units Adenosine Deaminase) (adenosine deaminase; [6]): 105.50% |
| [N-]=[N+]=NC1C[C@H](n2cnc3c(NC4CC4)nc(N)nc32)O[C@@H]1CO (some centres unmarked) [Compound 72] | detection of RFS-457-DP and RFS-457-TP | No RFS-512, RFS-512-MP, RFS-512-DP, or RFS-512-TP were detected | 1.5 | 8.8 | 3.1 | 15.8 | > 10 | > 10 | Deamination in 7 min (0.002 units Adenosine Deaminase) (adenosine deaminase; 50 μM, pH 7.4): 0.56%; Deamination in 120 min (0.2 units Adenosine Deaminase) (adenosine deaminase; 50 μM, pH 7.4): 33.40% |
| [N-]=[N+]=NC1C[C@H](n2cnc3c(N)nc(N)nc32)O[C@@H]1CO (stereo partly drawn) [Compound 73, β-D-3′-azido-2,6-diamino-2′,3′-dideoxypurine] | detection of RFS-457, RFS-457-MP, RFS-457-DP, RFS-457-TP RFS-667-DP, and RFS-667-TP | No RFS-667 or RFS-667-MP were detected | – | – | – | – | – | – | major metabolite (PBM cells [1]): RFS-457-TP as the major metabolite |

Source: patent US8815829B2, “3′-azido purine nucleotide prodrugs for treatment of viral infections” (priority 2008, dated 2014)
